These results are taken from US5905085A, “Trans cyclopentanyl deazaadenyl analogs useful as immunosuppressants” (Hoechst Marion Roussel, Inc., priority 1997, dated 1999).

pIC50: −log10 of the molar value. Where a name gives a salt, the structure may show the parent alone.

The test system of test [1] is Tumor Necrosis Factor alpha. The experiment in a line: Inhibition of Tumor Necrosis Factor alpha in LPS-stimulated PBMC (ELISA). Format: cell-based. The following applies: human PBMC adherent cells, 1 μg/ml LPS from E. coli, 18 hours; read-out: IC50 (TNF-α inhibition). As to the method: Peripheral blood mononuclear cells (PBMC) are isolated from venous blood collected from healthy volunteers in sodium citrate (5 ml of 3.6% sodium citrate for 45 ml of blood) by density gradient centrifugation of 5 minutes at 1500 rpm. The PBMC are resuspended in about 10 ml of RPMI-1640 with antibiotics. Approximately 2×10^6 cells of PBMC are added to tissue culture plates, incubated for 45-60 minutes at 37° C. with 5% CO2, aspirated, and washed twice by adding about 0.5 ml fresh RPMI-1640 with 10% non-mitogenic FBS (RPMI complete) and shaking for 15 to 30 seconds. 1.0 ml RPMI-1640 is added per well to the remaining adherent cells, which are pretreated with test compound solution about 15 minutes prior to endotoxin stimulation (1 μg/ml lipopolysaccharide from E. coli or solvent concentrations equal to those of test compounds.
Cultures are incubated for 18 hours t 37° C. in 5% CO2. Supernatants are tested from TNF-a using a commercial ELISA kit (Cistron, Pine Brook, N.J.). The IC50 is determined using SOFTmax software program.
For orientation: An ELISA detects its analyte on a solid surface through an enzyme-linked reagent.

Test [2] relates to MHC class II antigen on rat macrophages. The experiment in a line: Regulation of MHC class II expression on macrophages (flow cytometry, OX-6/OX-42). The format is cell-based. As to the method: Using the method of Edwards (J. of Cell Biochemistry 5E, 155(1991)), the ability of a compound of formula (1) to reduce Major Histocompatibility complex (MHC) class II antigen levels on macrophages (M.phi.) obtained from M.tuberculosis-treated rats may be measured. Cells obtained from treated rats are plated into tissue culture for a period of 4 hours to purify adherent cells, then treated with increasing levels of drug for a period of 18 hours. After this incubation period, cells are scraped from the dishes and stained using flow cytometry analysis with various monoclonal antibodies such as OX-6 a monoclonal antibody specific for MHC class II antigens and OX-42 a monoclonal antibody specific for rat macrophages.
In general terms: A flow cytometer gives signals particle by particle.

In test [3] the test system is rat macrophage antigen presentation to LEW/N rat T-cell hybridoma (Interleukin-2 production). The experiment in a line: Regulation of antigen presentation to rat T-cell hybridoma (Interleukin-2 production). The format is cell-based. On the procedure:
Using the method of Ku (Cellular Immunology 130,(1990)) and a Lewis (LEW/N) rat T-cell hybridoma reactive with the protein methylated bovine serum albumin (mBSA), the ability of a compound of formula (1) to regulate M.phi. antigen presentation in vitro may be measured. Peritoneal macrophages obtained from LEW/N rats are plated into tissue culture and treated with 100 ug of mBSA and drug A control is prepared similarly. After a period of 18 hours the cells are washed and incubated with the T-cell hybridoma for an additional 12 hours. Supernatants from these cultures are obtained and measured for content of Interleukin-2, a T-cell derived lymphokine which is produced by activated T-cells. […] Rat macrophage antigen presentation and the subsequent production of Interleukin-2 are inhibited when drug is administered over a concentration range from 0.1 to 100 uM as illustrated in the following table.

The test system of test [4] is endotoxin-induced septic shock in CFl mice. Nature of the test: Regulation of endotoxin lethality (mouse endotoxin lethality model). The format is in vivo. The following applies: 100 mg/kg i.p., pretreated at t = -1 hr; challenge D-galactosamine 18 mg and LPS 50 ng; observed 8-72 hour. On the procedure:
Using the method of Silverstein, (J. Exp. Med. 173, 357 (1991)) a mouse endotoxin lethality model may be used to determine if a compound of formula (1) has the ability to inhibit endotoxin-induced septic shock which is dependent on the production of Tumor Necrosis Factor-α (TNF-α). CFl mice pretreated at time (t)=-1 hr with drug are challenged with 18 mg of D-glactoseamine and 50 ng of LPS, then observed for death over an 8-72 hour period.

With `Nc1ncnc2c1ncn2[C@@H]1CCC[C@H]1O` (relative stereo) [(±)-Trans-1-(9-adenyl)-2-hydroxycyclopentane, reference compound], the pIC50 in test [1] is 4.65.
As to `Nc1nc(Cl)nc2c1ncn2[C@@H]1CC[C@@H](O)C1` [(1R,3R)-Trans-1-[9-(6-amino-2-cholopurinyl)]cyclopentan-3-ol hydrochloride], the pIC50 in test [1] was 5.39.
Regarding `Nc1ncnc2c1ncn2[C@@H]1CC[C@@H](O)C1` [(1R,3R)-TRANS-1(9-ADENYL)CYCLOPENTAN-3-OL HYDROCHLORIDE], the “OX-6/OX-42 double positive macrophages” value in test [2] (10 μM, 18 hours, positive control 59%) was determined as 39%. The inhibition at 10 µM in test [2] (Rattus norvegicus, Macrophage, 18 h, read-out: reduction of MHC II antigen expression on rat macrophages in vitro compared to positive control) is approximately 33%; in test [3] (Rattus norvegicus, T-cell, in vitro concentration 10.0 μM), 48.7%. In test [3] (Rattus norvegicus, T-cell, in vitro concentration 0.1 μM), the inhibition at 0.1 µM was 7.6%. This molecule also displayed an inhibition at 1 µM in test [3] (Rattus norvegicus, T-cell, in vitro concentration 1.0 μM) of 30.9%. The inhibition at 100 µM in test [3] (Rattus norvegicus, T-cell, in vitro concentration 100.0 μM) came out at 55.3%. In test [3] (concentration range from 0.1 to 100 uM), the “Rat macrophage antigen presentation and subsequent production of Interleukin-2” value is given as “inhibited”. Moreover, the T-cell activation result in test [3] (in vitro, mBSA antigen, rat T-cell hybridoma) is “inhibits T-cell activation”. Also, in test [4], the “protection against endotoxin lethality” value is recorded as “protects against endotoxin lethality”. In addition, the pIC50 in test [1] is 5.05.

In general, pIC50 refers to the IC50 on a negative log10 scale, so that one unit is a factor of ten.
